Patent publication US4073903A, “3-Desacetoxymethyl-3- 5'(1-methyltetrazolyl)thio!methyl-7- 1-(4-nitr oimidazolyl)acetyl!aminocephalosporanic acid” (Pierrel S.p.A., priority 1975, dated 1978)
In brackets after ≈: the same amount, converted by molar mass. Like-named read-outs stand apart in the source and are kept apart here.

Key:
Staphylococcus aureus = assay: MIC, twofold serial broth dilution (Table I); type: cell-based; conditions: 24 h, 37° C, read-out: Minimum inhibitory concentration (MIC)
Streptococcus mitis = assay: MIC, twofold serial broth dilution (Table I); type: cell-based; conditions: ATCC9895, strain ATCC 9895 Ty V, Todd Hewitt Broth, 37° C, 24 hours, read-out: Minimum inhibitory concentration (MIC)
Streptococcus bovis = assay: MIC, twofold serial broth dilution (Table I); type: cell-based; conditions: Streptococcus equinus, ATCC15351; strain ATCC 15351; Todd Hewitt Broth; 37° C, 24 hours; read-out: Minimum inhibitory concentration (MIC)
Streptococcus uberis = assay: MIC, twofold serial broth dilution (Table I); type: cell-based; conditions: ATCC9927, strain ATCC 9927, Todd Hewitt Broth, 37° C, 24 hours, read-out: Minimum inhibitory concentration (MIC)
Streptococcus faecalis = assay: MIC, twofold serial broth dilution (Table I); type: cell-based; conditions: Enterococcus faecalis; strain ISM 66/54; Tryptose Phosphate Broth; 37° C, 24 hours; read-out: Minimum inhibitory concentration (MIC)
Diplococcus pneumoniae = assay: MIC, twofold serial broth dilution (Table I); type: cell-based; conditions: Streptococcus pneumoniae; strain Ty XXVII-LRP 53; Todd Hewitt Broth; 37° C, 24 hours; read-out: Minimum inhibitory concentration (MIC)
Text: (§1) In Table I the minimum inhibitory concentrations (MIC) of P-75123 against a variety of Gram-positive and Gram-negative bacteria are listed.

Shigella flexneri = assay: MIC, twofold serial broth dilution (Table I); type: cell-based; conditions: strain ISM-LRP 40, Tryptose Phosphate Broth, 37° C, 24 hours, read-out: Minimum inhibitory concentration (MIC)
Text: as §1

Shigella sonnei = assay: MIC, twofold serial broth dilution (Table I); type: cell-based; conditions: strain ISM-LRP 5, Tryptose Phosphate Broth, 37° C, 24 hours, read-out: Minimum inhibitory concentration (MIC)
Text: as §1

Shigella dysenteriae = assay: MIC, twofold serial broth dilution (Table I); type: cell-based; conditions: 24 h, read-out: Minimum inhibitory concentration (MIC)
Enterobacter cloacae = assay: MIC, twofold serial broth dilution (Table I); type: cell-based; conditions: strain ISM 71/32, Tryptose Phosphate Broth, 37° C, 24 hours, read-out: Minimum inhibitory concentration (MIC)
[1] = tested on: Enterobacter liquefaciens; assay: MIC, twofold serial broth dilution (Table I); type: cell-based; conditions: strain ISM 65/33, Tryptose Phosphate Broth, 37° C, 24 hours, read-out: Minimum inhibitory concentration (MIC)
Salmonella typhi = assay: MIC, twofold serial broth dilution (Table I); type: cell-based; conditions: Salmonella enterica, 24 h, read-out: Minimum inhibitory concentration (MIC)
Klebsiella pneumoniae [2] = assay: MIC, twofold serial broth dilution (Table I); type: cell-based; conditions: strain ISM 68/67' 370 V', Tryptose Phosphate Broth, 37° C, 24 hours, read-out: Minimum inhibitory concentration (MIC)
Proteus morganii = assay: MIC, twofold serial broth dilution (Table I); type: cell-based; conditions: Morganella morganii; strain ISM-LRP 18; Mueller Hinton Broth; 37° C, 24 hours; read-out: Minimum inhibitory concentration (MIC)
Proteus rettgeri = assay: MIC, twofold serial broth dilution (Table I); type: cell-based; conditions: Providencia rettgeri; strain ISM-LRP 21; Mueller Hinton Broth; 37° C, 24 hours; read-out: Minimum inhibitory concentration (MIC)
Proteus mirabilis = assay: MIC, twofold serial broth dilution (Table I); type: cell-based; conditions: 37° C, 24 hours, read-out: Minimum inhibitory concentration (MIC)
Pasteurella multocida = assay: MIC, twofold serial broth dilution (Table I); type: cell-based; conditions: ATCC6588, strain ATCC 6588, Tryptose Broth, 37° C, 24 hours, read-out: Minimum inhibitory concentration (MIC)
Brucella suis = assay: microbe, parasite or virus in culture; type: cell-based; conditions: 24 h, read-out: Minimum inhibitory concentration (MIC)
Pseudomonas aeruginosa = assay: MIC, twofold serial broth dilution (Table I); type: cell-based; conditions: strain ISM-LRP 9, Tryptose Phosphate Broth, 37° C, 24 hours, read-out: Minimum inhibitory concentration (MIC)
[3] = tested on: wide spectrum of microorganisms both Gram-positive and Gram-negative; assay: In vitro antimicrobial activity (overall statement); type: cell-based
Escherichia coli [4] = assay: MIC against clinical isolates, broth dilution test (Table III); conditions: for MIC: Escherichia coli, 24 h
Escherichia coli [5] = assay: Treatment of mice systemically infected with Escherichia coli (Table V); conditions: in Mus musculus, 168 h, read-out: ED50 per treatment
Klebsiella pneumoniae [6] = conditions: in Mus musculus, 168 h, read-out: ED50 per treatment
Salmonella essen = assay: MIC against Ampicillin-resistant clinical isolates, broth dilution test (Table IV); conditions: Salmonella enterica, 24 h, read-out: Minimun inhibitory concentration (MIC)
Salmonella wien = assay: as above; conditions: Salmonella enterica, 24 h
Salmonella heidelberg = assay: as above; conditions: Salmonella enterica, 24 h, read-out: Minimun inhibitory concentration (MIC)

## Cn1nnnc1SCC1=C(C(=O)O)N2C(=O)C(NC(=O)Cn3cnc([N+](=O)[O-])c3)C2SC1 (stereo not shown) [P-75123, 7-1-(1H-4-nitroimidazolyl)acetyl!amino-3-5-(1H-1-methyltetrazolyl)thio!methyl-3-cephem-4-carboxylic acid]
Staphylococcus aureus; strain ATTC 653P, Tryptose Phosphate Broth
  MIC: 0.195 µg/mL (≈ 0.405 µM)
Staphylococcus aureus; strain ISM 72/10, Tryptose Phosphate Broth
  MIC: 0.78 µg/mL (≈ 1.62 µM)
Streptococcus mitis
  MIC: 0.195 µg/mL (≈ 0.405 µM)
Streptococcus bovis
  MIC: 0.049 µg/mL (≈ 0.102 µM)
Streptococcus uberis
  MIC: 0.097 µg/mL (≈ 0.201 µM)
Streptococcus faecalis
  MIC: 100 µg/mL (≈ 208 µM)
Diplococcus pneumoniae
  MIC: 0.097 µg/mL (≈ 0.201 µM)
Shigella flexneri
  MIC: 0.78 µg/mL (≈ 1.62 µM)
Shigella sonnei
  MIC: 1.56 µg/mL (≈ 3.24 µM)
Shigella dysenteriae
  MIC: 0.78 µg/mL (≈ 1.62 µM)
Enterobacter cloacae
  MIC: > 100 µg/mL
[1]
  MIC: 100 µg/mL (≈ 208 µM)
Salmonella typhi
  MIC: 0.78 µg/mL (≈ 1.62 µM)
Klebsiella pneumoniae [2]
  MIC: 0.78 µg/mL (≈ 1.62 µM)
Proteus morganii
  MIC: 50 µg/mL (≈ 104 µM)
Proteus rettgeri
  MIC: 25 µg/mL (≈ 51.9 µM)
Proteus mirabilis; ATCC10005, strain ATCC 10005, Mueller Hinton Broth
  MIC: 3.12 µg/mL (≈ 6.48 µM)
Proteus mirabilis; strain ISM 66/53, Mueller Hinton Broth
  MIC: 3.12 µg/mL (≈ 6.48 µM)
Pasteurella multocida
  MIC: 0.39 µg/mL (≈ 0.81 µM)
Brucella suis
  MIC: 12.5 µg/mL (≈ 26 µM)
Pseudomonas aeruginosa
  MIC: > 100 µg/mL
[3]
  "in vitro" antimicrobial activity: high antimicrobial activity
Escherichia coli [4]; read-out: Minimum inhibitory concentration (MIC)
  MIC: 1.56 µg/mL (≈ 3.24 µM)
Escherichia coli [4]; read-out: Minimum inhibitory concentration (MIC), clinical isolate LRP 87
  MIC: 3.12 µg/mL (≈ 6.48 µM)
Escherichia coli [4]; read-out: Minimum inhibitory concentration (MIC), clinical isolate LRP 110
  MIC: 0.78 µg/mL (≈ 1.62 µM)
Escherichia coli [4]; read-out: Minimum inhibitory concentration (MIC), clinical isolate LRP 143
  MIC: 0.78 µg/mL (≈ 1.62 µM)
Escherichia coli [4]; read-out: Minimum inhibitory concentration (MIC), clinical isolate LRP 152
  MIC: 50 µg/mL (≈ 104 µM)
Escherichia coli [4]; read-out: Minimum inhibitory concentration (MIC), clinical isolate LRP 159
  MIC: 0.78 µg/mL (≈ 1.62 µM)
Escherichia coli [4]; clinical isolate LRP 96
  Minimum inhibitory concentration (MIC): 1.56 µg/mL (≈ 3.24 µM)
Escherichia coli [4]; clinical isolate LRP 150
  Minimum inhibitory concentration (MIC): 1.56 µg/mL (≈ 3.24 µM)
Escherichia coli [4]; clinical isolate LRP 151
  Minimum inhibitory concentration (MIC): 1.56 µg/mL (≈ 3.24 µM)
Escherichia coli [4]; clinical isolate LRP 154
  Minimum inhibitory concentration (MIC): 1.56 µg/mL (≈ 3.24 µM)
Escherichia coli [4]; clinical isolate LRP 155
  Minimum inhibitory concentration (MIC): 1.56 µg/mL (≈ 3.24 µM)
Escherichia coli [4]; clinical isolate LRP 156
  Minimum inhibitory concentration (MIC): 1.56 µg/mL (≈ 3.24 µM)
Escherichia coli [4]; clinical isolate LRP 158
  Minimum inhibitory concentration (MIC): 1.56 µg/mL (≈ 3.24 µM)
Escherichia coli [4]; clinical isolate LRP 163
  Minimum inhibitory concentration (MIC): 1.56 µg/mL (≈ 3.24 µM)
Escherichia coli [5]
  ED50: 35 mg/kg
Klebsiella pneumoniae [6]
  ED50: 49 mg/kg
Salmonella essen
  MIC: 1.56 µg/mL (≈ 3.24 µM)
Salmonella wien; read-out: Minimun inhibitory concentration (MIC), Ampicillin-resistant clinical isolate LRP 138
  MIC: 3.12 µg/mL (≈ 6.48 µM)
Salmonella wien; read-out: Minimun inhibitory concentration (MIC), Ampicillin-resistant clinical isolate LRP 140
  MIC: 6.25 µg/mL (≈ 13 µM)
Salmonella wien; read-out: Minimun inhibitory concentration (MIC), Ampicillin-resistant clinical isolate LRP 141
  MIC: 6.25 µg/mL (≈ 13 µM)
Salmonella heidelberg
  MIC: 1.56 µg/mL (≈ 3.24 µM)
